Data set [1] deals with complementary DNA oligonucleotide (SEQ ID NO:7 or SEQ ID NO:8). In words: Thermal stability test, measurement of Tm (DNA/DNA match duplex). Format: binding. Conditions: for Tm / Tm of the duplex DNA/DNA compared with that of T-1 (control) and T-2 (control), in words / ΔTm: duplex DNA/DNA; for Tm: 3 μM each oligonucleotide, 10 mM sodium phosphate buffer, 100 mM sodium chloride, pH 7.0, 20 to 90° C. at 0.5° C. per minute, absorbance at 260 nm; for Tm of the duplex DNA/DNA compared with that of T-1 (control) and T-2 (control), in words: versus oligonucleotides of only naturally occurring nucleosides; for ΔTm: difference from the matching control (T-1 or T-2). From the text:
Using commercially available dT-CE phosphoramidite and dA-CE phosphoramidite (both of them were produced by Glen research Corp.) as materials, also using 3′-dT-CPG (1 μmol) packed in a column (produced by Glen research Corp.) as a starting material, oligonucleotides were synthesized according to the same method as in Example 2, in order to obtain oligonucleotides which were each complementary to UNF-1 and UNF-2 obtained in Example 2, respectively. The base sequences of oligonucleotides complementary to UNF-1 (SEQ ID NO:7) and complementary to UNF-2 (SEQ ID NO:8) are shown in Table 2 below.
Using UNF-1 and UNF-2, which were synthesized in Example 2, and complementary oligonucleotides thereto shown in Table 2 as materials, duplexes DNA/DNA were prepared according to the conventional method (R. Kierzek et al., Biochemistry, 1986, vol. 25, pp. 7840-7846).
Using the obtained duplex DNA/DNA, thermal stability test was carried out according to the conventional method.
(§1) That is, using a UV-2450 SPECTROPHOTOMETER equipped with a temperature-variable device (produced by Shimadzu Corp.), the oligonucleotides were placed in 8 consecutive 10 mm cells under the nitrogen atmosphere, and 10 mM of sodium phosphate buffer and 100 mM of sodium chloride (pH 7.0) were added thereto so that the concentration of each oligonucleotide became 3 μM, then the temperature was increased from 20° C. to 90° C. with a climbing rate of 0.5° C. per minute, and absorbance at 260 nm were measured.
A duplex DNA/DNA formed between TN-1 synthesized in Comparative Example 2 and a complementary oligonucleotide thereto represented by SEQ ID NO:7, and a duplex formed DNA/DNA between TN-2 synthesized in Comparative Example 2 and a complementary oligonucleotide thereto represented by SEQ ID NO:8 were synthesized according to the same method as in Example 3. The thermal stability of these duplex nucleic acids obtained was examined according to the same method as in Example 3.
In addition, a duplex DNA/DNA formed between T-1 (control) synthesized in Comparative Example 2 and a complementary oligonucleotide thereto represented by SEQ ID NO:7, and a duplex DNA between T-2 (control) synthesized in Comparative Example 2 and a complementary oligonucleotide thereto represented by SEQ ID NO:8 were synthesized according to the same method as in Example 3. Thermal stability of these duplex nucleic acids obtained was examined according to the same method as in Example 3. The results were shown together in FIG. 1.

The subject of data set [2] is complementary RNA oligonucleotide (SEQ ID NO:9 or SEQ ID NO:10). Briefly: Thermal stability test, measurement of Tm (DNA/RNA match duplex). It is filed as binding. Conditions: for Tm / Tm of the duplex DNA/RNA compared with that of T-1 (control) and T-2 (control), in words / ΔTm: duplex DNA/RNA; for Tm: same method as Example 3 (3 μM, 10 mM sodium phosphate buffer, 100 mM sodium chloride, pH 7.0); for Tm of the duplex DNA/RNA compared with that of T-1 (control) and T-2 (control), in words: versus oligonucleotides of only naturally occurring nucleosides; for ΔTm: difference from the matching control (T-1 or T-2). The protocol:
as §1
Using commercially available rA-CE phosphoramidite, rU-CE phosphoramidite and rC-CE phosphoramidite as materials, also using 3′-dU-CPG (all of them were produced by Glen research Corp.) as a starting material, complementary oligonucleotides to each of UNF-1 and UNF-2 which were prepared in Example 2, were synthesized according to the same method as in Example 2.
Using UNF-1 and UNF-2, which were synthesized in Example 2, and the complementary oligonucleotides thereto shown in Table 2 as materials, a duplex DNA/RNA was prepared according to the conventional method (R. Kierzek et al., Biochemistry, 1986, vol. 25, pp. 7840-7846).
Using the obtained duplexes DNA/RNA, thermal stability test was carried out according to the same method as in Example 3.
A duplex DNA/RNA formed between TN-1 synthesized in Comparative Example 2 and a complementary oligonucleotide thereto represented by SEQ ID NO:9, and a duplex DNA/RNA formed between TN-2 synthesized in Comparative Example 2 and a complementary oligonucleotide thereto represented by SEQ ID NO:10 were synthesized according to the same method as in Example 4. Thermal stabilities of these duplex nucleic acids obtained were examined according to the same method as in Example 4.
In addition, a duplex DNA/RNA formed between T-1 (control) synthesized in Comparative Example 2 and a complementary oligonucleotide thereto represented by SEQ ID NO:9, and a duplex DNA formed between T-2 (control) synthesized in Comparative Example 2 and a complementary oligonucleotide thereto represented by SEQ ID NO:10 were synthesized according to the same method as in […]. Thermal stabilities of these duplex nucleic acids obtained were examined according to the same method as in Example 4.

[5NF] = 5'-amino-2'-fluoro-2',5'-dideoxyuridine unit, linked through its 5'-amino group; d = 2'-deoxy (DNA)

As to “T-1 (control): SEQ ID NO:5, 5′-d(AAG GAA ATG AGG AAA GA)-3′; oligonucleotide comprising only naturally occurring nucleosides (AAGGAAATGAGGAAAGA; unmodified DNA)”, the Tm was 52.9 °C in data set [1] and 42.1 °C in data set [2].
As for “T-2 (control): SEQ ID NO:6, 5′-d(AAG GAA TTG AGG AAA GA)-3′; oligonucleotide comprising only naturally occurring nucleosides (AAGGAATTGAGGAAAGA; unmodified DNA)”, the Tm in data set [1] was 53.5 °C; in data set [2], 44 °C.
As for “TN-1: SEQ ID NO:3, 5′-(AAG GAA AT^NG AGG AAA GA)-3′; T^N = introduced 5′-aminothymidine (comparative) (AAGGAAANGAGGAAAGA; 5'-aminothymidine, chemistry not fully specified)”, in data set [1], the “Tm of the duplex DNA/DNA compared with that of T-1 (control) and T-2 (control), in words” value was “lower”; the Tm was determined as 50.6 °C; the ΔTm is recorded as −2.3. Also, in data set [2], the “Tm of the duplex DNA/RNA compared with that of T-1 (control) and T-2 (control), in words” value is listed as “lower”; the ΔTm was −4.4; the Tm stood at 37.7 °C.
Regarding “TN-2: SEQ ID NO:4, 5′-(AAG GAA T^NT^NG AGG AAA GA)-3′; T^N = introduced 5′-aminothymidine (comparative) (AAGGAANNGAGGAAAGA; 5'-aminothymidines, chemistry not fully specified)”, in data set [1], the “Tm of the duplex DNA/DNA compared with that of T-1 (control) and T-2 (control), in words” value is on record as “lower”; the Tm is 48.3 °C; the ΔTm is −5.2. In data set [2], the “Tm of the duplex DNA/RNA compared with that of T-1 (control) and T-2 (control), in words” value was “lower”; the ΔTm is reported as −5.0; the Tm worked out at 39 °C.
Regarding “UNF-1: SEQ ID NO:1, 5′-(AAG GAA AU^NFG AGG AAA GA)-3′; U^NF = introduced 5′-amino-2′-fluoro-2′,5′-dideoxyuridine (AAGGAAAUGAGGAAAGA; sugars from the 5' end d7 [5NF]1 d9, backbone not given here)”, in data set [1], the “Tm of the duplex DNA/DNA compared with that of T-1 (control) and T-2 (control), in words” value was “equivalent”; the Tm was found to be 51.8 °C; the ΔTm is listed as −1.1. For the same substance, in data set [2], the “Tm of the duplex DNA/RNA compared with that of T-1 (control) and T-2 (control), in words” value is “equivalent”; the ΔTm is reported as −0.2; the Tm came to 41.9 °C.
As for “UNF-2: SEQ ID NO:2, 5′-(AAG GAA U^NFU^NFG AGG AAA GA)-3′; U^NF = introduced 5′-amino-2′-fluoro-2′,5′-dideoxyuridine (AAGGAAUUGAGGAAAGA; sugars from the 5' end d6 [5NF]2 d9, backbone not given here)”, the “Tm compared with that of UNF-1, in words” value in data set [1] (duplex DNA/DNA (Table 3), two UNFs versus one UNF) is recorded as “higher”. For the same substance, in data set [1], the “Tm of the duplex DNA/DNA compared with that of T-1 (control) and T-2 (control), in words” value is “equivalent”; the midpoint of thermal melting (Tm) came to 52.1 °C; the ΔTm is given as −1.4. In data set [2] (duplex DNA/RNA (Table 5), two UNFs versus one UNF), the “Tm compared with that of UNF-1, in words” value is recorded as “higher”. In addition, in data set [2], the “Tm of the duplex DNA/RNA compared with that of T-1 (control) and T-2 (control), in words” value was “equivalent”; the ΔTm was −0.5; the Tm was 43.5 °C.

One may read the Tm as the temperature at which the thermal transition is half complete.

(Values after US7629447B2, “Dideoxynucleoside derivatives” (Wako Pure Chemical Industries, Ltd., priority 2006, dated 2009).)
